Reference: patent publication US20210379040A1, “COMBINATION TREATMENT OF LIVER DISORDERS” (Terns Pharmaceuticals, Inc., priority 2020, published 2021)
pEC50: −log10 of the molar value. Counter-ions that a name gives are not always drawn. Like-named read-outs stand apart in the source and are kept apart here.

What was measured:
[1] = cited from earlier work
[2] = test system: FXR-regulated gene expression in human HuH7 hepatoma cells; assay: cells; conditions: Huh-7, 11 h
Experimental: EC50 values for FXR-regulated gene expression were determined using a cell-based RNA assay.

[3] = Single-ascending dose clinical trial: plasma PK and safety
Experimental: (§1) SSAO inhibition was determined by measuring relative reductions in plasma H2O2 generation after addition of an exogenous substrate (benzylamine). […] Safety was assessed for 7 (±3) days after dosing.
(§2) Plasma PK parameters were determined by non-compartmental analysis. […] Percent change in total amine oxidase activity was determined relative to the corresponding pre-dose (baseline) samples.

[4] = male, human, in vivo
Experimental: as §1, §2

CC[C@H]1[C@@H](O)[C@@H]2[C@H](CC[C@]3(C)[C@@H]([C@H](C)CCNC(=O)NS(=O)(=O)c4ccc(C(C)(C)C)cc4)CC[C@@H]23)[C@@]2(C)CC[C@@H](O)C[C@@H]12 [EDP-305]
known to result in pruritus: pruritus in longer term studies [1]

CC[C@H]1[C@@H](O)[C@@H]2[C@H](CC[C@]3(C)[C@@H]([C@H](C)CCC(=O)O)CC[C@@H]23)[C@@]2(C)CC[C@@H](O)C[C@@H]12 [OCA, obeticholic acid, reference compound]
6.70: pEC50 ([2]; read-out: EC50, BSEP Gene induction/HuH7) | pEC50 ([2]; read-out: EC50, SHP Gene induction/HuH7)
6.89: pEC50 ([2]; read-out: EC50, FGF-19 Gene Induction/HuH7)
known to result in pruritus: pruritus in longer term studies [1]

O=C(O)c1ccnc(N2CC(O)(c3ccc(OCc4c(-c5c(Cl)cccc5Cl)noc4C4CC4)cc3Cl)C2)c1 [cilofexor]
known to result in pruritus: pruritus in longer term studies [1]

COC1CCN(c2ncc(OC/C(=C/F)CN)cn2)CC1 [tosylate salt of Compound 2]
1 (3.1): Subject incidence of TEAEs considered possibly treatment-related ([3]; All (n = 32)) | TEAE frequency: constipation ([3]; All (n = 32)) | TEAE frequency: dysgeusia ([3]; All (n = 32)) | TEAE frequency: headache ([3]; All (n = 32)) | TEAE frequency: sore throat ([3]; All (n = 32)) | TEAE frequency: upper respiratory tract infection ([3]; All (n = 32)) | TEAE frequency: oral herpes [4]
3 (37.5): Subject incidence of any TEAE ([3]; 10 mg or placebo (n = 8))
rapidly cleared from plasma: clearance from plasma ([3]; single doses, healthy humans)
5 (15.6): Subject incidence of any TEAE ([3]; All (n = 32))
0: Subject incidence of TEAEs considered possibly treatment-related ([3]; 1 mg or placebo (n = 8)) | Subject incidence of any TEAE ([3]; 1 mg or placebo (n = 8)) | TEAE frequency: constipation ([3]; 1 mg or placebo (n = 8)) | TEAE frequency: contact dermatitis ([3]; 1 mg or placebo (n = 8)) | TEAE frequency: dysgeusia ([3]; 1 mg or placebo (n = 8)) | TEAE frequency: headache ([3]; 1 mg or placebo (n = 8)) | TEAE frequency: sore throat ([3]; 1 mg or placebo (n = 8)) | TEAE frequency: upper respiratory tract infection ([3]; 1 mg or placebo (n = 8)) | Subject incidence of TEAEs considered possibly treatment-related ([3]; 3 mg or placebo (n = 8)) | Subject incidence of any TEAE ([3]; 3 mg or placebo (n = 8)) | TEAE frequency: constipation ([3]; 3 mg or placebo (n = 8)) | TEAE frequency: contact dermatitis ([3]; 3 mg or placebo (n = 8)) | TEAE frequency: dysgeusia ([3]; 3 mg or placebo (n = 8)) | TEAE frequency: headache ([3]; 3 mg or placebo (n = 8)) | TEAE frequency: sore throat ([3]; 3 mg or placebo (n = 8)) | TEAE frequency: upper respiratory tract infection ([3]; 3 mg or placebo (n = 8)) | Subject incidence of TEAEs considered possibly treatment-related ([3]; 6 mg (n = 8)) | TEAE frequency: constipation ([3]; 6 mg (n = 8)) | TEAE frequency: dysgeusia ([3]; 6 mg (n = 8)) | TEAE frequency: headache ([3]; 6 mg (n = 8)) | TEAE frequency: upper respiratory tract infection ([3]; 6 mg (n = 8)) | TEAE frequency: contact dermatitis ([3]; 10 mg or placebo (n = 8)) | TEAE frequency: sore throat ([3]; 10 mg or placebo (n = 8))
1 (12.5): TEAE frequency: sore throat ([3]; 6 mg (n = 8)) | Subject incidence of TEAEs considered possibly treatment-related ([3]; 10 mg or placebo (n = 8)) | TEAE frequency: constipation ([3]; 10 mg or placebo (n = 8)) | TEAE frequency: dysgeusia ([3]; 10 mg or placebo (n = 8)) | TEAE frequency: headache ([3]; 10 mg or placebo (n = 8)) | TEAE frequency: upper respiratory tract infection ([3]; 10 mg or placebo (n = 8))
2 (6.3): TEAE frequency: contact dermatitis ([3]; All (n = 32))
2 (25): Subject incidence of any TEAE ([3]; 6 mg (n = 8)) | TEAE frequency: contact dermatitis ([3]; 6 mg (n = 8))

O=C(O)c1cc(F)c2nc(N3[C@@H]4CC[C@H]3C[C@@H](OCc3c(-c5ccccc5OC(F)(F)F)noc3C3CC3)C4)sc2c1 [tropifexor]
known to result in pruritus: pruritus in longer term studies [1]
